Read-outs that look alike come from different tables or passages of the source.
Tests used:
Mtb proteasome [1] = target: T1, Mtb proteasome (Mycobacterium tuberculosis, UniProt P9WHT9); assay: Preliminary inhibition studies of Mtb proteasome with oligopeptide substrates; assay type: biochemical
T1 construct: made in house; host or cells: E. coli

human skin fibroblasts = assay: Cytotoxicity, human skin fibroblasts; assay type: cell-based; settings: up to 50 μM, 4 days
Experimental: (§1) Given that proteasome-inhibiting oxathiazol-2ones killed mycobacteria, their impact on the survival of mammalian cells was tested. […] In contrast, less than 10% of Vero cells remained viable after 4-day exposure to 25 nM bortezomib. Finally, because most Mtb in nature resides in human macrophages, we exposed human monocyte-derived macrophages (mostly multinucleated giant cells) to 100 μM GL3, GL5 or GL6 for 7 days.

[2] = target: proteasome in M. bovis BCG (Mycobacterium bovis, UniProt A1KKF3); assay: cell-based; settings: read-out: intrabacterial proteasome inhibition
proteasome in M. bovis BCG, sequence (A1KKF3 whole entry, looked up): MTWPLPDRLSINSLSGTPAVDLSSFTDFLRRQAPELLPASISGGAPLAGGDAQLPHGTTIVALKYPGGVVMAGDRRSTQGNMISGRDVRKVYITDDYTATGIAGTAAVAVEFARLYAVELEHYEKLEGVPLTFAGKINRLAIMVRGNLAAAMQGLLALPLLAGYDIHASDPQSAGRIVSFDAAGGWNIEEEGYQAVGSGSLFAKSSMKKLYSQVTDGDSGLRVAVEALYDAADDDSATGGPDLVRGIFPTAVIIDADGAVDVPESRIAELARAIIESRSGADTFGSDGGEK

[3] = tested on: human monocyte-derived macrophages; assay: Cytotoxicity, human monocyte-derived macrophages; assay type: cell-based; settings: 7 days
Experimental: as §1

Mtb proteasome [4] = target: T1, Mtb proteasome; assay type: biochemical; settings: dialysis 18 hours against inhibitor-free buffer
α-chymotrypsin = α-chymotrypsin (Bos taurus, UniProt P00766); assay: Inhibition of α-chymotrypsin; assay type: biochemical, mammalian
Excerpt: The unique inactivation mechanism of oxathiazol-2-ones led to an examination of selectivity of these compounds among non-proteasomal proteases, such as chymotrypsin, trypsin, cathepsin B, and matrix metalloproteinase (MMP)-2, representatives of the serine-, cysteine-, and matrix metalloproteinase classes. […] In contrast to the proteasome's N-terminal Thr active site residue, chymotrypsin's active site Ser residue is positioned internally. Given the lack of a terminal NH2 group, the acyl-enzyme intermediate formed by reaction of oxathiazol-2-one with the γ-OH of chymotrypsin's active site Ser can undergo either aqueous hydrolysis to reactivate the enzyme or regeneration of oxathiazol-2-one by the released —OH or —SH group attacking —CO-γO-Ser.

M. bovis BCG = assay: microbe, parasite or virus in culture; assay type: cell-based, Mycobacterium bovis BCG; settings: for reduction of colony forming units (CFU): cells exposed to DETA-NO 50 μM; for log reduction at 25 µM: Mycobacterium tuberculosis variant bovis BCG, BCG, 96 h, read-out: BCG killing (25 μM)
human lung fibroblasts = assay: Cytotoxicity, human lung fibroblasts; assay type: cell-based; settings: up to 50 μM, 4 days
Experimental: as §1

[5] = target: human 20S-β5 (Hu20S PA28) (Homo sapiens, UniProt P28074); assay: Kinetics of inhibition of human 20S proteasome β5 site in presence of PA28; assay type: biochemical
[6] = tested on: Vero monkey kidney epithelial cells; assay: Cytotoxicity, Vero cells; assay type: cell-based; settings: for cytotoxicity: up to 50 μM, 4 days
Experimental: as §1

Mtb H37Rv = assay: Mycobactericidal activity against Mtb (CFU); assay type: cell-based, Mycobacterium tuberculosis
[7] = tested on: mouse macrophage-like RAW264.7 cells; assay: Cytotoxicity, RAW264.7 cells; assay type: cell-based; settings: up to 50 μM, 4 days
Experimental: as §1

Mtb PrcAB-OG [8] = target: T2, Mtb PrcAB-OG (Mycobacterium tuberculosis, UniProt P9WHT9); assay: biochemical; assay type: biochemical
T2 construct: made in house; host or cells: E. coli
Target sequence in this assay (P9WHT9 58-291): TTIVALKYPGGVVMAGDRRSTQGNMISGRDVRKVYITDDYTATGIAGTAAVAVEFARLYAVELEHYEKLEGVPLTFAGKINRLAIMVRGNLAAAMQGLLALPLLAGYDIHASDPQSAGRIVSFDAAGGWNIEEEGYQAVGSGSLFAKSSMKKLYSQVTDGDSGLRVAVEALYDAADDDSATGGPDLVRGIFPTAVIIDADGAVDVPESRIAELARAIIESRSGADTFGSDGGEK

Mtb PrcAB-OG [9] = assay: biochemical; assay type: biochemical, Mycobacterium tuberculosis
Mtb PrcAB-OG [10] = target: T2, Mtb PrcAB-OG; assay type: biochemical
Target sequence in this assay (P9WHT9 58-291): as above
Target sequence in this assay (P9WHU1 9-248 partner, looked up, natural form): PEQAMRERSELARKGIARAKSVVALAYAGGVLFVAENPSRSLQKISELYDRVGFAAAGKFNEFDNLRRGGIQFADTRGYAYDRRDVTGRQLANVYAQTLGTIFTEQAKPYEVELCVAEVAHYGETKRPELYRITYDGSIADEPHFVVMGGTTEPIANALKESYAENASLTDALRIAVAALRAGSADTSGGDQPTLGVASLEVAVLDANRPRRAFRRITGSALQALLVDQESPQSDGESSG

human proteasome = human proteasome (Homo sapiens, UniProt P28072+P28074+Q99436); assay: Preliminary inhibition studies of human proteasome with oligopeptide substrates
[11] = 50 μM, 4 days, Mtb exposed overnight to 100 μM DETA
[12] = 50 μM, 4 days, Mtb exposed overnight to 100 μM DETA-NO
[13] = Table 1, read-out: kobs/[I] Mtb-OG
[14] = Mycobacterium tuberculosis, H37RV, 96 h; read-out: Mtb killing (50 μM)

T1 sequence (P9WHT9 58-291): as the sequence (P9WHT9 58-291) above
T1 sequence (P9WHU1 9-248 partner, looked up, natural form): as the sequence (P9WHU1 9-248 partner, looked up, natural form) above

O=c1oc(-c2cnccn2)ns1 [5-(pyrazin-2-yl)-1,3,4-oxathiazol-2-one]
inhibition of Mtb proteasome (Mtb proteasome [1]): found to inhibit the Mtb proteasome, albeit less potently than GL5

CSc1sc(C)cc1-c1nsc(=O)o1 [GL5]
cytotoxicity (human skin fibroblasts): no evident cytotoxicity
inhibition at 10 µM [2]: ≥ 50%
morphologic sign of cytotoxicity ([3]; 100 μM): no morphologic sign of cytotoxicity
activity recovered after dialysis (Mtb proteasome [4]): did not restore the activity
IC50 (α-chymotrypsin): 0.064 µM
Ki (α-chymotrypsin; reversible, time-independent inhibition): 0.064 µM
reduction of colony forming units (CFU) (M. bovis BCG; 25 μM, 4 days): 400 fold
reduction of colony forming units (CFU) (M. bovis BCG; 50 μM, 4 days): more than 2000 fold
log reduction at 25 µM (M. bovis BCG): > 2
killing of BCG (M. bovis BCG; alone and with DETA-NO 50 μM, 4 days): able to kill BCG
cytotoxicity (human lung fibroblasts): no evident cytotoxicity
reversibility of inactivation of human proteasome β5 subunit ([5]; plots of kobs vs [I] not passing through origin): reversible
kinact/KI ([5]; read-out: kobs/[I] H20S-β5): 9.8 ± 1.3 M⁻¹ s⁻¹
kinact/KI ([5]; read-out: kobs/[I] Hu20S PA28): 0.4 M⁻¹ s⁻¹
cytotoxicity [6]: no evident cytotoxicity
reduction of number of CFU (Mtb H37Rv; [11]): not if they had been exposed to DETA
reduction of number of CFU (Mtb H37Rv; [12]): 47 fold
log reduction at 50 µM (Mtb H37Rv; Mycobacterium tuberculosis, H37RV, 96 h, read-out: Mtb killing (50 μM)): 1.4
cytotoxicity [7]: no evident cytotoxicity
Hill coefficient (Mtb PrcAB-OG) (Mtb PrcAB-OG [8]): 1
effect of substrate concentration on rate of inactivation (Mtb PrcAB-OG [8]): Increasing substrate concentration reduced the rate of proteasome inactivation
kinact/K (Mtb PrcAB-OG [8]; Mtb PrcAB-OG, corrected for substrate competition, […]): 625 ± 12.2^b M^−1s^−1
kinact/KI (Mtb PrcAB-OG [8]; [13]): 376 M⁻¹ s⁻¹
kinact/KI (Mtb PrcAB-OG [8]; corrected for substrate competition, read-out: kinact/K for GL5 vs Mtb proteasome): 624 ± 12.2 M⁻¹ s⁻¹
kinact/KI (Mtb PrcAB-OG [8]; slope of kobs vs [I], not corrected for substrate competition, read-out: apparent value of kobs/[I]): 476 ± 9.3 M⁻¹ s⁻¹
improvement in species selectivity ratio relative to bortezomib (Mtb PrcAB-OG [9]): ~1160 fold
selectivity toward Mtb proteasome over human β5 proteasome subunit (Mtb PrcAB-OG [9]): 64 fold
Ratio (Mtb PrcAB-OG [9]; kobs/[I] Mtb-OG versus Hu20S PA28): 1033

Cc1cc(-c2nsc(=O)o2)c(S(C)(=O)=O)s1 [GL6]
cytotoxicity (human skin fibroblasts): no evident cytotoxicity
morphologic sign of cytotoxicity ([3]; 100 μM): no morphologic sign of cytotoxicity
inhibition of Mtb proteasome (Mtb proteasome [1]): inhibited neither
prevention of β-casein degradation by Mtb proteasome (Mtb PrcAB-OG [10]): but not GL6
cytotoxicity (human lung fibroblasts): no evident cytotoxicity
cytotoxicity [6]: no evident cytotoxicity
reduction of number of CFU (Mtb H37Rv; [11]): did not lead to a reduction of CFU
reduction of number of CFU (Mtb H37Rv; [12]): did not lead to a reduction of CFU
cytotoxicity [7]: no evident cytotoxicity
inhibition of human proteasome (human proteasome): inhibited neither

O=c1oc(-c2cc([N+](=O)[O-])cs2)ns1 [HT1016]
IC50 (α-chymotrypsin): 5.87 µM
log reduction at 25 µM (M. bovis BCG): > 3
kinact/KI ([5]; read-out: kobs/[I] Hu20S PA28): 12.3 M⁻¹ s⁻¹
log reduction at 50 µM (Mtb H37Rv; [14]): 2.2
kinact/KI (Mtb PrcAB-OG [8]; [13]): 732 M⁻¹ s⁻¹

O=c1oc(-c2ccc([N+](=O)[O-])cc2)ns1 [HT1041]
IC50 (α-chymotrypsin): 2.08 µM
log reduction at 25 µM (M. bovis BCG): 0.8
kinact/KI ([5]; read-out: kobs/[I] Hu20S PA28): 12.9 M⁻¹ s⁻¹
log reduction at 50 µM (Mtb H37Rv; [14]): 1.7
kinact/KI (Mtb PrcAB-OG [8]; read-out: kobs/[I] Mtb-OG): 598 M⁻¹ s⁻¹

O=c1oc(-c2cccc([N+](=O)[O-])c2)ns1 [HT1042]
IC50 (α-chymotrypsin): 3.14 µM
log reduction at 25 µM (M. bovis BCG): 2
kinact/KI ([5]; read-out: kobs/[I] Hu20S PA28): 10.3 M⁻¹ s⁻¹
log reduction at 50 µM (Mtb H37Rv; [14]): 1.7
kinact/KI (Mtb PrcAB-OG [8]; read-out: kobs/[I] Mtb-OG): 729 M⁻¹ s⁻¹

O=c1oc(-c2ccccn2)ns1 [HT1043]
IC50 (α-chymotrypsin): 16.6 µM
log reduction at 25 µM (M. bovis BCG): 1
kinact/KI ([5]; read-out: kobs/[I] Hu20S PA28): 0.2 M⁻¹ s⁻¹
log reduction at 50 µM (Mtb H37Rv; [14]): 1.8
kinact/KI (Mtb PrcAB-OG [8]; read-out: kobs/[I] Mtb-OG): 460 M⁻¹ s⁻¹

Cc1ccc(-c2nsc(=O)o2)s1 [HT1044]
IC50 (α-chymotrypsin): 8.02 µM
log reduction at 25 µM (M. bovis BCG): 1.7
kinact/KI ([5]; read-out: kobs/[I] Hu20S PA28): 148 M⁻¹ s⁻¹
log reduction at 50 µM (Mtb H37Rv; [14]): 2
kinact/KI (Mtb PrcAB-OG [8]; [13]): 1070 M⁻¹ s⁻¹

COc1cccc(-c2nsc(=O)o2)c1 [HT1054]
IC50 (α-chymotrypsin): 2.19 µM
log reduction at 25 µM (M. bovis BCG): > 3
kinact/KI ([5]; read-out: kobs/[I] Hu20S PA28): 14.8 M⁻¹ s⁻¹
log reduction at 50 µM (Mtb H37Rv; [14]): 2
kinact/KI (Mtb PrcAB-OG [8]; read-out: kobs/[I] Mtb-OG): 636 M⁻¹ s⁻¹

O=c1oc(-c2cccc(F)c2)ns1 [HT1071]
IC50 (α-chymotrypsin): 2.67 µM
log reduction at 25 µM (M. bovis BCG): > 3
kinact/KI ([5]; read-out: kobs/[I] Hu20S PA28): 31.3 M⁻¹ s⁻¹
log reduction at 50 µM (Mtb H37Rv; [14]): 2.2
kinact/KI (Mtb PrcAB-OG [8]; read-out: kobs/[I] Mtb-OG): 1060 M⁻¹ s⁻¹

O=c1oc(-c2cccc(C(F)(F)F)c2)ns1 [HT1086]
IC50 (α-chymotrypsin): 48.1 µM
kinact/KI ([5]; read-out: kobs/[I] Hu20S PA28): 0.4 M⁻¹ s⁻¹
kinact/KI (Mtb PrcAB-OG [8]; [13]): 155 M⁻¹ s⁻¹

O=c1oc(-c2ccco2)ns1 [HT1113]
IC50 (α-chymotrypsin): 22.7 µM
log reduction at 25 µM (M. bovis BCG): 1
kinact/KI ([5]; read-out: kobs/[I] Hu20S PA28): 10.1 M⁻¹ s⁻¹
log reduction at 50 µM (Mtb H37Rv; [14]): 2
kinact/KI (Mtb PrcAB-OG [8]; [13]): 435 M⁻¹ s⁻¹

Cc1ccc(-c2nsc(=O)o2)cc1 [HT1117]
IC50 (α-chymotrypsin): 3.67 µM
kinact/KI ([5]; read-out: kobs/[I] Hu20S PA28): 53.4 M⁻¹ s⁻¹
kinact/KI (Mtb PrcAB-OG [8]; [13]): 433 M⁻¹ s⁻¹

Cc1cccc(-c2nsc(=O)o2)c1 [HT1118]
IC50 (α-chymotrypsin): 15.8 µM
log reduction at 25 µM (M. bovis BCG): 0.8
kinact/KI ([5]; read-out: kobs/[I] Hu20S PA28): 11.3 M⁻¹ s⁻¹
log reduction at 50 µM (Mtb H37Rv; [14]): 1.7
kinact/KI (Mtb PrcAB-OG [8]; read-out: kobs/[I] Mtb-OG): 133 M⁻¹ s⁻¹

O=c1oc(-c2ccccc2)ns1 [HT1146]
IC50 (α-chymotrypsin): 10 µM
kinact/KI ([5]; read-out: kobs/[I] Hu20S PA28): 31.3 M⁻¹ s⁻¹
kinact/KI (Mtb PrcAB-OG [8]; [13]): 409 M⁻¹ s⁻¹

COc1cc(OC)cc(-c2nsc(=O)o2)c1 [HT1147]
IC50 (α-chymotrypsin): 83.9 µM
kinact/KI (Mtb PrcAB-OG [8]; [13]): 45.8 M⁻¹ s⁻¹

Cc1sc(-c2nsc(=O)o2)cc1[N+](=O)[O-] [HT1171]
kinact/KI (Mtb PrcAB-OG [8]; [13]): 3490 M⁻¹ s⁻¹

C[C@@]12OC(=O)[C@]1([C@@H](O)[C@@H]1C=CCCC1)NC(=O)[C@@H]2CCCl [NPI-0052]
activity recovered after dialysis (Mtb proteasome [4]): did not restore the activity

CC(C)C[C@H](NC(=O)[C@H](Cc1ccccc1)NC(=O)c1cnccn1)B(O)O [bortezomib, reference compound]
morphologic sign of cytotoxicity ([3]; 0.5 μM): rounded up or appeared to disintegrate
activity recovered after dialysis (Mtb proteasome [4]): 70%
Vero cells remaining viable ([6]; 25 nM, 4-day exposure): less than 10%

From patent US20110118274A1, “PROTEASOME INHIBITORS AND THEIR USE IN TREATING PATHOGEN INFECTION AND CANCER” (CORNELL RESEARCH FOUNDATION, INC., priority 2007, published 2011)
